From patent US10369119B2 (priority 2015, dated 2019)
“Also recorded” adds a separate entry of the source.

Key:
[1] = target: T1, caspase-3 (Mus musculus, UniProt P70677); test: biochemical; type: biochemical
T1 construct: Caspases were induced in RAW264.7 by treating cells with 2 μg/ml of PE for 4 hours; endogenous in cells; host or cells: RAW264.7 (lysate after PE treatment)

[2] = target: T2, caspase-6 (Mus musculus, UniProt O08738); test: biochemical; type: biochemical
T2 construct: Caspases were induced in RAW264.7 by treating cells with 2 μg/ml of PE for 4 hours; endogenous in cells; host or cells: RAW264.7 (lysate after PE treatment)

[3] = test system: caspase-3/7; type: biochemical, mouse
[4] = test system: PE-sensitive HapMap cells (human B-lymphocytes); type: cell-based
[5] = target: T3, caspase-1 (Homo sapiens, UniProt P29466); type: biochemical
T3 construct: purchased BioVision

[6] = target: T4, caspase-9 (Homo sapiens, UniProt P55211); type: biochemical
T4 construct: purchased BioVision

[7] = target: T5, caspase-3 (Homo sapiens, UniProt P42574); type: biochemical
T5 construct: purchased BioVision

[8] = target: T6, caspase-6 (Homo sapiens, UniProt P55212); type: biochemical
T6 construct: purchased BioVision

[9] = target: T7, caspase-7 (Homo sapiens, UniProt P55210); type: biochemical
T7 construct: purchased BioVision

[10] = test system: other caspases; type: biochemical, human
[11] = test system: LF-PA-mediated cell killing in RAW264.7 cells; type: cell-based, mouse
[12] = target: T8, caspase-1 (Mus musculus, UniProt P29452); type: cell-based
T8 construct: Cathepsin B and caspase-1 activities in total cell lysates were determined; endogenous in cells; host or cells: RAW264.7

[13] = target: anthrax LF toxin (Bacillus anthracis, UniProt P15917); type: cell-based
[14] = target: T9, furin (Mus musculus, UniProt P23188); type: cell-based
T9 construct: endogenous in cells; host or cells: RAW264.7

[15] = target: T10, cathepsin-B (Mus musculus, UniProt P10605); type: cell-based
T10 construct: Cathepsin B and caspase-1 activities in total cell lysates were determined; endogenous in cells; host or cells: RAW264.7

[16] = test system: botulinum neurotoxin serotype A complex (BoNT/A); set-up: species or system Swiss Webster (CFW) mice; settings: mouse, in vivo
[17] = target: BoNT/A light chain (Clostridium botulinum, UniProt P0DPI0); type: biochemical
[18] = test system: Puerto Rico ZIKV; test: Zika virus high content imaging infection assay, Puerto Rico strain PRVABC59 in Vero E6 cells; type: cell-based; settings: Vero C1008, 2 hours pretreatment, MOI 0.5, 48 hours, read-out: EC50 for inhibition of abundance of Puerto Rico ZIKV in Vero E6 cells
[19] = test system: Senegal ZIKV; test: Zika virus high content imaging infection assay, Senegal strain DAK AR D 41525 in Vero E6 cells; type: cell-based; settings: Vero C1008, 2 hours pretreatment, MOI 0.5, 48 hours, read-out: EC50 for inhibition of abundance of Senegal ZIKV in Vero E6 cells
[20] = test system: Senegal ZIKV; test: Zika virus high content imaging infection assay, Senegal strain DAK AR D 41525 in human astrocytes; type: cell-based; settings: Astrocyte, 2 hours pretreatment, MOI 15, 48 hours, read-out: EC50 for inhibition of abundance of Senegal ZIKV in human astrocytes
[21] = test system: Diphtheria toxin-mediated cytotoxicity in C32 cells; test: cells; settings: Homo sapiens, C32, read-out: EC50 for reduction of diphtheria toxin-mediated cytotoxicity
[22] = test system: cholera toxin-mediated cytotoxicity in RAW264.7 cells; test: cells; settings: Mus musculus, RAW264.7, read-out: EC50 for reduction of cholera toxin-mediated cytotoxicity
[23] = test system: Pseudomonas aeruginosa exotoxin A (PE)-mediated cytotoxicity in RAW264.7 cells; test: cells; settings: Mus musculus, RAW264.7, read-out: EC50 for reduction of Pseudomonas toxin-mediated cytotoxicity
[24] = test system: Diphtheria toxin-mediated cytotoxicity in C32 cells
[25] = test system: cholera toxin-mediated cytotoxicity in RAW264.7 cells
[26] = test system: Pseudomonas aeruginosa exotoxin A (PE)-mediated cytotoxicity in RAW264.7 cells

T2 sequence (O08738 6-162 limits assumed): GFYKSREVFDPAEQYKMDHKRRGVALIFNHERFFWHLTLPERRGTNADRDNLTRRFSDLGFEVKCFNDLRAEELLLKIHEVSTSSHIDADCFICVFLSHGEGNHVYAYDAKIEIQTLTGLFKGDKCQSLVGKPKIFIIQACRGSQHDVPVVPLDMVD
T2 sequence (O08738 176-276 limits assumed): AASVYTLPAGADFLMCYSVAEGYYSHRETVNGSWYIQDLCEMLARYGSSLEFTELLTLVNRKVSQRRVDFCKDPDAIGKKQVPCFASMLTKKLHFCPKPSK
T1 sequence (P70677 29-175 limits assumed): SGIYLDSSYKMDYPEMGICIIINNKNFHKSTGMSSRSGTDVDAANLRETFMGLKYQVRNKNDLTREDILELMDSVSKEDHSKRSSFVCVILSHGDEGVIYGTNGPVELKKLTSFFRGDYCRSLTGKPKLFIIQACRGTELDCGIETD
T1 sequence (P70677 176-277 limits assumed): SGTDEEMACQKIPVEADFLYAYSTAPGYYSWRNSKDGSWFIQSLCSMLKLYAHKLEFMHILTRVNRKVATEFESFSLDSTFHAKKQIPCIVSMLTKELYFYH
Sequence of anthrax LF toxin (P15917 34-809 limits assumed): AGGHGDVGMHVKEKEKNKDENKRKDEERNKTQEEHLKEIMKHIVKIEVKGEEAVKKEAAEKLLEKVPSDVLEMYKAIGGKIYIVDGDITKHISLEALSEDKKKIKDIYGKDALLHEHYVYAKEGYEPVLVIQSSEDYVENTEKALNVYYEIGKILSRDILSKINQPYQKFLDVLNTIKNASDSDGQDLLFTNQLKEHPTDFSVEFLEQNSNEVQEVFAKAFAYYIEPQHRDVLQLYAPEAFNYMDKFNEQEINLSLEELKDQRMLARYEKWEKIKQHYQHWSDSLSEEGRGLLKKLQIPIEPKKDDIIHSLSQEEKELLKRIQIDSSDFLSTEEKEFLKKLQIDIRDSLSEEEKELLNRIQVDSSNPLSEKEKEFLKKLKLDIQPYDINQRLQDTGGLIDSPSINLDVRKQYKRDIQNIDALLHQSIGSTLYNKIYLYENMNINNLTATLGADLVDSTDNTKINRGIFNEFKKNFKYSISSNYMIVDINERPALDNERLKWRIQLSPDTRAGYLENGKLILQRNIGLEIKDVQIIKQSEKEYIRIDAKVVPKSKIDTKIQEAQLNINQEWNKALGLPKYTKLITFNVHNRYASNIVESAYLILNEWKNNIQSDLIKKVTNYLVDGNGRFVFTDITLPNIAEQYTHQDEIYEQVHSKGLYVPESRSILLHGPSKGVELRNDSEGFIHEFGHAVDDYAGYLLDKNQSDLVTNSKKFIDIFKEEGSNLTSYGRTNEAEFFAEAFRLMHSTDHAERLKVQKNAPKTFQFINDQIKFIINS
Sequence of BoNT/A light chain (P0DPI0 2-448 limits assumed): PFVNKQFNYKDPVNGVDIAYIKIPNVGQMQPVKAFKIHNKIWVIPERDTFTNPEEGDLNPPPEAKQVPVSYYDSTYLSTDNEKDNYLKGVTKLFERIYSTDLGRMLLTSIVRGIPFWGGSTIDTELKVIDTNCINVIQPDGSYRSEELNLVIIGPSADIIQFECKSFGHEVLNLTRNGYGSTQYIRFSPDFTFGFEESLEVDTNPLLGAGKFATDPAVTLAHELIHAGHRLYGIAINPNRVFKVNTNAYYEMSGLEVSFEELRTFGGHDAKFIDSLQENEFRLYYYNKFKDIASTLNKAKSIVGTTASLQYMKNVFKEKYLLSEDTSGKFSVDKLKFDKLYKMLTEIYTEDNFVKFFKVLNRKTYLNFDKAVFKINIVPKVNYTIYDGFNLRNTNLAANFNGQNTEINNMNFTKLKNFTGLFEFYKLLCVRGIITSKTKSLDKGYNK
T3 sequence (P29466 120-297 limits assumed): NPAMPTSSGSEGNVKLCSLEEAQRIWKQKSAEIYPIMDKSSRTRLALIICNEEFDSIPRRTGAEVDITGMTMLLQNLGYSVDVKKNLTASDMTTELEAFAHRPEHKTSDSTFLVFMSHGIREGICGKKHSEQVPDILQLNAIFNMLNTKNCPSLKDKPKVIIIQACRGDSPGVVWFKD
T3 sequence (P29466 317-404 limits assumed): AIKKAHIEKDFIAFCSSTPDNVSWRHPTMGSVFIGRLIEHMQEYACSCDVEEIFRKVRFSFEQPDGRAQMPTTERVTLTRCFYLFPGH
T7 sequence (P55210 24-198 limits assumed): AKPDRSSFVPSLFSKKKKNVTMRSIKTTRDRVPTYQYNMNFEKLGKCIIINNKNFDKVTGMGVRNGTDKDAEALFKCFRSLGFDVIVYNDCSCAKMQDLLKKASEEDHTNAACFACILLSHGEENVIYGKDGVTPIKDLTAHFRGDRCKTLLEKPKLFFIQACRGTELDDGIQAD
T7 sequence (P55210 207-303 limits assumed): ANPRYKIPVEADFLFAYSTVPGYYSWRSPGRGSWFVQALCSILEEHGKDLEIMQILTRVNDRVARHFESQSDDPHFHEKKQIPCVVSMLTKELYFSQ
T8 sequence (P29452 119-296 limits assumed): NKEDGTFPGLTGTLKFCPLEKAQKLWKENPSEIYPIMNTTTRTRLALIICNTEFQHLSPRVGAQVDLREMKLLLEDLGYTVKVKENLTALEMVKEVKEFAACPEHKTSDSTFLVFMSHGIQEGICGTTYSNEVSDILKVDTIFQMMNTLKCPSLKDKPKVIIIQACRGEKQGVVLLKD
T8 sequence (P29452 315-402 limits assumed): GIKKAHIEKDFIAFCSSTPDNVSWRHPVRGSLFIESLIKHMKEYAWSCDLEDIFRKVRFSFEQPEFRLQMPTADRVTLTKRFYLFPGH
T5 sequence (P42574 29-175 limits assumed): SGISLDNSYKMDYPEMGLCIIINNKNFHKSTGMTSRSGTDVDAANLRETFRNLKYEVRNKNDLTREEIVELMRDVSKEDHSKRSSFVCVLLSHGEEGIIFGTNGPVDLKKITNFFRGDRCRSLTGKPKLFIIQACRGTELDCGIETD
T5 sequence (P42574 176-277 limits assumed): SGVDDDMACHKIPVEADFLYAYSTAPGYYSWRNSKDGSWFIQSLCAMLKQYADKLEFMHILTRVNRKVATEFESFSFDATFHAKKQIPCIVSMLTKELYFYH
T9 sequence (P23188 108-793): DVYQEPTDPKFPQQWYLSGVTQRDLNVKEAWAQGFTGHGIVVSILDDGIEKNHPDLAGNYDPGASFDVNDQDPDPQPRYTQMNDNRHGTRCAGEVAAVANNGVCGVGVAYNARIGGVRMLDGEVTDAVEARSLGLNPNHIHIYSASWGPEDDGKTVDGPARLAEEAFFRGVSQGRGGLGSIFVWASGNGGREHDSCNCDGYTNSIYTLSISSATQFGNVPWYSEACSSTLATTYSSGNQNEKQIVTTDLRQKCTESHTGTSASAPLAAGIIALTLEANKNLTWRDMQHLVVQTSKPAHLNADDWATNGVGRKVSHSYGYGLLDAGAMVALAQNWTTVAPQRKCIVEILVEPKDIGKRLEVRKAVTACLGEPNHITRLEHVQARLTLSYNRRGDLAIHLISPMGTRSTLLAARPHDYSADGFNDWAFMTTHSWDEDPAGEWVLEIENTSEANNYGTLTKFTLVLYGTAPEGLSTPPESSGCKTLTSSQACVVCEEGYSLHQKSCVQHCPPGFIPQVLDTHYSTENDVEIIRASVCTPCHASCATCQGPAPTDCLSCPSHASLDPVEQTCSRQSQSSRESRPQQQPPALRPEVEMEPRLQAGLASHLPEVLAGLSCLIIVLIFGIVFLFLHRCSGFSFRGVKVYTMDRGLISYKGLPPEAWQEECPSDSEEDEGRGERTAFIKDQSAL
T10 sequence (P10605 80-333): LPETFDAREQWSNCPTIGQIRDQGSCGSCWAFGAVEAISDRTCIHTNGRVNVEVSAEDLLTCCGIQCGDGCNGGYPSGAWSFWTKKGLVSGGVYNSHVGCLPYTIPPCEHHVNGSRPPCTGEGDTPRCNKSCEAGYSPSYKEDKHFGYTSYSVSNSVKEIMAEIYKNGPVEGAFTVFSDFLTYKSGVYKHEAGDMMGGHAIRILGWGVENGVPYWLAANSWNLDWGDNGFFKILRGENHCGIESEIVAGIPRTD
T6 sequence (P55212 24-179 limits assumed): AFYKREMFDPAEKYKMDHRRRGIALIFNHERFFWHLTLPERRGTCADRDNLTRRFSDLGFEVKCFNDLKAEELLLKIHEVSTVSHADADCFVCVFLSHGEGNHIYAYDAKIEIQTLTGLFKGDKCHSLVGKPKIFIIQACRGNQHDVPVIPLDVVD
T6 sequence (P55212 194-293 limits assumed): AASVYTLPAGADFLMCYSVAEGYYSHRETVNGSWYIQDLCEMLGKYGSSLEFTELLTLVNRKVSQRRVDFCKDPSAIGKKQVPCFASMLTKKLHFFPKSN
T4 sequence (P55211 1-315 limits assumed): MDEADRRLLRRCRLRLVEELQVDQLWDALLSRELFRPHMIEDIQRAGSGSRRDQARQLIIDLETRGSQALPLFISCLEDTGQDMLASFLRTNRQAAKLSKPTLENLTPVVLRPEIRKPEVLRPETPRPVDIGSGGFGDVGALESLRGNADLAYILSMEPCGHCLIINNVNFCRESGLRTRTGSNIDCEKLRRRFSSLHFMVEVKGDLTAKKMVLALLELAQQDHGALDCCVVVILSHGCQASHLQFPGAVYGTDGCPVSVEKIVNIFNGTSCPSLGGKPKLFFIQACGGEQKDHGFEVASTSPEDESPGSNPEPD
T4 sequence (P55211 331-416 limits assumed): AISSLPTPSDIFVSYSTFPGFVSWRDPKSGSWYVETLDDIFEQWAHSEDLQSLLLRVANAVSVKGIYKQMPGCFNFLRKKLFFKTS

In the case of `Oc1c(Cl)cc(Cl)cc1Sc1cc(Cl)cc(Cl)c1O` [Bithionol], the IC50 [1] is reported as 21 µM, the “CCL FRET screen hit: reduction of proteolysis of caspase-3 substrate” value ([1]; 33 μM) is reported as “capable of prominently reducing the proteolysis of all three caspase substrates” and the IC50 [2] is reported as 13 µM. The “CCL FRET screen hit: reduction of proteolysis of caspase-6 substrate” value ([2]; 33 μM) was “capable of prominently reducing the proteolysis of all three caspase substrates”, the “CCL FRET screen hit: reduction of proteolysis of caspase-3/7 substrate” value ([3]; 33 μM) was “capable of prominently reducing the proteolysis of all three caspase substrates” and the IC50 ([3]; read-out: IC50 for inhibition of proteolytic cleavage of caspase-3/7 substrate) was 11 µM. For the same compound, the “Reduction of cellular sensitivity to PE in PE-sensitive HapMap cells” value [4] was “protected three cell lines”, the “Inhibition of purified recombinant human caspase-1 activity” value [5] was “inhibited activities” and the “Inhibition of purified recombinant human caspase-9 activity” value [6] was “inhibited activities”. The “Inhibition of purified recombinant human caspase-3 activity” value [7] was “inhibited activities”, the “Inhibition of purified recombinant human caspase-6 activity” value [8] was “inhibited activities” and the “Inhibition of purified recombinant human caspase-7 activity” value [9] was “inhibited activities”. The “Inhibition of other purified recombinant human caspases” value [10] was “no inhibitory effects”, the “Protection against LF-PA-mediated cell killing” value [11] was “substantial protection” and the “Caspase-1 induction upon LF-PA treatment” value [12] was “caspase-1 induction was not detected”. For the same compound, the “Inhibition of proteolytic activity of cellular LF (MAPKK2 proteolysis)” value [13] was “does not block proteolysis; also recorded: does not inhibit”, the “Inhibition of proteolytic activity of cellular furin” value [14] was “does not inhibit” and the “Inhibition of proteolytic activity of cellular cathepsin-B” value [15] was “does not inhibit”. For the same compound, the “Survival of mice challenged with lethal oral dose of BoNT/A complex” value [16] was “all of the mice”, the “Toxin-associated symptoms (wasp waist, paralysis) in BoNT/A challenged mice” value [16] was “without displaying toxin-associated symptoms” and the “Effect on proteolysis rate of fluorescent SNAP-25 substrate by BoNT/A” value [17] was “did not affect the proteolysis rate”. For the same compound, the EC50 [18] was 6.7 µM, the EC50 [19] was 5.5 µM and the EC50 [20] was 6.3 µM. It also gave an EC50 [21] of 10 µM, an EC50 [22] of 10 µM and an EC50 [23] of 10 µM.
`Oc1cccc(O)c1O` [Pyrogallol] was tested, and the “CCL cellular screen hit: reduction of diphtheria toxin cytotoxicity” value [24] was “capable of reducing the cytotoxicities of all three toxins”, the “CCL cellular screen hit: reduction of cholera toxin cytotoxicity” value [25] was “capable of reducing the cytotoxicities of all three toxins” and the “CCL cellular screen hit: reduction of PE cytotoxicity” value [26] was “capable of reducing the cytotoxicities of all three toxins”.
